The source of these data is the supplement of paper PMC11208160.

A short description of this data set: recombinant barcode read abundance after kanamycin selection (control-corrected) (log10(CPM+1)); higher = more efficient recombination; sequences stand for … in AGTGCAGAGAAAATCGGCCAGTTTTCTCTGCCTGCAGTCCGCATGCCGT…ATTTATGCAGCGGACTGCCTTTCTCCCAAAGTGATAAACCGGACAGTATCATGGACCGGTTTTCCCGGTAATCCGTATTTGCAAGGTTGGTTTCACT; site = the 11-nt target. How it is done:
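Same pooled E. coli target screen (IS621 bridge recombinase, kanamycin selection, control-corrected CPM, mean of 2 biological replicates). Here the two core-binding nucleotides of the LTG and RTG of the bridge RNA target-binding loop are mutated. Target and donor CT cores are held constant, and the other 9 guide positions match the target. The target is read from the library oligo sequence. Molecule = full bridge RNA written as DNA: nt 1-80 from the library oligo, rest WT scaffold.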

In the case of “AGGCCTCTGTGGGTTCTAACCTGTTGCCTAG [AGGCCTCCTAG_LTGcore_TG_RTGcore_CT] (site AGGCCTCCTAG) (LTG core: TG, RTG core: CT)”, the “recombinant barcode read abundance (log10)” value is 0.11.

Turning to “AGGCGGGAGTGGGTTCTAACCTGTTGCGGCT [AGGCGGGCTCC_LTGcore_AG_RTGcore_AG] (site AGGCGGGCTCC) (LTG core: AG, RTG core: AG)”, the “recombinant barcode read abundance (log10)” value is 0.0482.

As to “AGGCGGGATTGGGTTCTAACCTGTTGCGGAG [AGGCGGGCTCC_LTGcore_AT_RTGcore_CT] (site AGGCGGGCTCC) (LTG core: AT, RTG core: CT)”, the “recombinant barcode read abundance (log10)” value turned out to be 0.447.

“AGGCGGGATTGGGTTCTAACCTGTTGCGGAT [AGGCGGGCTCC_LTGcore_AT_RTGcore_AT] (site AGGCGGGCTCC) (LTG core: AT, RTG core: AT)”: the “recombinant barcode read abundance (log10)” value was determined as 0.178.

For “AGGCGGGCTTGGGTTCTAACCTGTTGCGGCA [AGGCGGGCTCC_LTGcore_CT_RTGcore_TG] (site AGGCGGGCTCC) (LTG core: CT, RTG core: TG)”, the “recombinant barcode read abundance (log10)” value was found to be 0.0958.

Consider “AGGCGGGCTTGGGTTCTAACCTGTTGCGGCT [AGGCGGGCTCC_LTGcore_CT_RTGcore_AG] (site AGGCGGGCTCC) (LTG core: CT, RTG core: AG)”, for which the “recombinant barcode read abundance (log10)” value turned out to be 0.172.

Regarding “AGGCGGGCTTGGGTTCTAACCTGTTGCGGTA [AGGCGGGCTCC_LTGcore_CT_RTGcore_TA] (site AGGCGGGCTCC) (LTG core: CT, RTG core: TA)”, the “recombinant barcode read abundance (log10)” value was determined as 0.138.

In the case of “AGGCGGGCTTGGGTTCTAACCTGTTGCGGTG [AGGCGGGCTCC_LTGcore_CT_RTGcore_CA] (site AGGCGGGCTCC) (LTG core: CT, RTG core: CA)”, the “recombinant barcode read abundance (log10)” value amounted to 0.201.

Consider “AGGCGGGGATGGGTTCTAACCTGTTGCGGAG [AGGCGGGCTCC_LTGcore_GA_RTGcore_CT] (site AGGCGGGCTCC) (LTG core: GA, RTG core: CT)”, for which the “recombinant barcode read abundance (log10)” value was determined as 0.555.

For “AGGCGGGTCTGGGTTCTAACCTGTTGCGGAG [AGGCGGGCTCC_LTGcore_TC_RTGcore_CT] (site AGGCGGGCTCC) (LTG core: TC, RTG core: CT)”, the “recombinant barcode read abundance (log10)” value is 0.95.

As for “AGGCGGGTGTGGGTTCTAACCTGTTGCGGCA [AGGCGGGCTCC_LTGcore_TG_RTGcore_TG] (site AGGCGGGCTCC) (LTG core: TG, RTG core: TG)”, the “recombinant barcode read abundance (log10)” value was found to be 0.0694.

Turning to “AGGCGGTACTGGGTTCTAACCTGTTGCTTGT [AGGCGGTCTAA_LTGcore_AC_RTGcore_AC] (site AGGCGGTCTAA) (LTG core: AC, RTG core: AC)”, the “recombinant barcode read abundance (log10)” value worked out at 0.166.

As to “AGGCGGTCATGGGTTCTAACCTGTTGCTTAG [AGGCGGTCTAA_LTGcore_CA_RTGcore_CT] (site AGGCGGTCTAA) (LTG core: CA, RTG core: CT)”, the “recombinant barcode read abundance (log10)” value amounted to 0.322.

On to “AGGCGGTCGTGGGTTCTAACCTGTTGCTTCG [AGGCGGTCTAA_LTGcore_CG_RTGcore_CG] (site AGGCGGTCTAA) (LTG core: CG, RTG core: CG)”, for which the “recombinant barcode read abundance (log10)” value worked out at 0.228.

Consider “AGGCGGTCTTGGGTTCTAACCTGTTGCTTAA [AGGCGGTCTAA_LTGcore_CT_RTGcore_TT] (site AGGCGGTCTAA) (LTG core: CT, RTG core: TT)”, for which the “recombinant barcode read abundance (log10)” value was determined as 0.0737.

For “AGGCGGTCTTGGGTTCTAACCTGTTGCTTGA [AGGCGGTCTAA_LTGcore_CT_RTGcore_TC] (site AGGCGGTCTAA) (LTG core: CT, RTG core: TC)”, the “recombinant barcode read abundance (log10)” value was found to be 0.107.

Consider “AGGCGGTCTTGGGTTCTAACCTGTTGCTTGC [AGGCGGTCTAA_LTGcore_CT_RTGcore_GC] (site AGGCGGTCTAA) (LTG core: CT, RTG core: GC)”, for which the “recombinant barcode read abundance (log10)” value was 0.784.

“AGGCGGTCTTGGGTTCTAACCTGTTGCTTGG [AGGCGGTCTAA_LTGcore_CT_RTGcore_CC] (site AGGCGGTCTAA) (LTG core: CT, RTG core: CC)”: the “recombinant barcode read abundance (log10)” value is 0.244.

For “AGGCGGTGATGGGTTCTAACCTGTTGCTTAG [AGGCGGTCTAA_LTGcore_GA_RTGcore_CT] (site AGGCGGTCTAA) (LTG core: GA, RTG core: CT)”, the “recombinant barcode read abundance (log10)” value is 0.09.

Regarding “AGGCGGTGATGGGTTCTAACCTGTTGCTTTC [AGGCGGTCTAA_LTGcore_GA_RTGcore_GA] (site AGGCGGTCTAA) (LTG core: GA, RTG core: GA)”, the “recombinant barcode read abundance (log10)” value is 0.101.

For “AGTCTTAAATGGGTTCTAACCTGTTGCCAAG [AGTCTTACTTG_LTGcore_AA_RTGcore_CT] (site AGTCTTACTTG) (LTG core: AA, RTG core: CT)”, the “recombinant barcode read abundance (log10)” value turned out to be 0.182.

Take “AGTCTTACTTGGGTTCTAACCTGTTGCCAAC [AGTCTTACTTG_LTGcore_CT_RTGcore_GT] (site AGTCTTACTTG) (LTG core: CT, RTG core: GT)”: the “recombinant barcode read abundance (log10)” value is 0.0371.

With “AGTCTTACTTGGGTTCTAACCTGTTGCCACT [AGTCTTACTTG_LTGcore_CT_RTGcore_AG] (site AGTCTTACTTG) (LTG core: CT, RTG core: AG)”, the “recombinant barcode read abundance (log10)” value came out at 0.0729.

Take “AGTCTTACTTGGGTTCTAACCTGTTGCCAGT [AGTCTTACTTG_LTGcore_CT_RTGcore_AC] (site AGTCTTACTTG) (LTG core: CT, RTG core: AC)”: the “recombinant barcode read abundance (log10)” value stood at 0.0396.

“AGTCTTAGTTGGGTTCTAACCTGTTGCCAAC [AGTCTTACTTG_LTGcore_GT_RTGcore_GT] (site AGTCTTACTTG) (LTG core: GT, RTG core: GT)”: the “recombinant barcode read abundance (log10)” value was determined as 0.

Take “AGTCTTATGTGGGTTCTAACCTGTTGCCAAG [AGTCTTACTTG_LTGcore_TG_RTGcore_CT] (site AGTCTTACTTG) (LTG core: TG, RTG core: CT)”: the “recombinant barcode read abundance (log10)” value is 0.0537.

“AGTCTTATGTGGGTTCTAACCTGTTGCCACA [AGTCTTACTTG_LTGcore_TG_RTGcore_TG] (site AGTCTTACTTG) (LTG core: TG, RTG core: TG)”: the “recombinant barcode read abundance (log10)” value stood at 0.0473.

As to “ATGCTTTAGTGGGTTCTAACCTGTTGCCTCT [ATGCTTTCTAG_LTGcore_AG_RTGcore_AG] (site ATGCTTTCTAG) (LTG core: AG, RTG core: AG)”, the “recombinant barcode read abundance (log10)” value turned out to be 0.0908.

Turning to “ATGCTTTATTGGGTTCTAACCTGTTGCCTAT [ATGCTTTCTAG_LTGcore_AT_RTGcore_AT] (site ATGCTTTCTAG) (LTG core: AT, RTG core: AT)”, the “recombinant barcode read abundance (log10)” value is 0.153.

Regarding “ATGCTTTCATGGGTTCTAACCTGTTGCCTAG [ATGCTTTCTAG_LTGcore_CA_RTGcore_CT] (site ATGCTTTCTAG) (LTG core: CA, RTG core: CT)”, the “recombinant barcode read abundance (log10)” value turned out to be 0.0483.

With “ATGCTTTCTTGGGTTCTAACCTGTTGCCTCG [ATGCTTTCTAG_LTGcore_CT_RTGcore_CG] (site ATGCTTTCTAG) (LTG core: CT, RTG core: CG)”, the “recombinant barcode read abundance (log10)” value amounted to 0.21.

In the case of “ATGCTTTCTTGGGTTCTAACCTGTTGCCTTA [ATGCTTTCTAG_LTGcore_CT_RTGcore_TA] (site ATGCTTTCTAG) (LTG core: CT, RTG core: TA)”, the “recombinant barcode read abundance (log10)” value came to 0.0193.
